Source: ChEMBL document CHEMBL4371079, “Improved synthesis, resolution, absolute configuration determination and biological evaluation of HLM006474 enantiomers” (Bioorg Med Chem Lett, 2019)
Activity calls are given as the source filed them. The rule behind the calls is not given here.

Biological target: Transcription factor E2F1 (Homo sapiens) (UniProt Q01094)
Assay: Inhibition of E2F1 transcriptional activity (unknown origin) expressed in HEK293 cells at 10 uM measured after 48 hrs by luciferase reporter gene assay
Format: cell-based

Chain of Transcription factor E2F1 (Homo sapiens) (Q01094 whole entry): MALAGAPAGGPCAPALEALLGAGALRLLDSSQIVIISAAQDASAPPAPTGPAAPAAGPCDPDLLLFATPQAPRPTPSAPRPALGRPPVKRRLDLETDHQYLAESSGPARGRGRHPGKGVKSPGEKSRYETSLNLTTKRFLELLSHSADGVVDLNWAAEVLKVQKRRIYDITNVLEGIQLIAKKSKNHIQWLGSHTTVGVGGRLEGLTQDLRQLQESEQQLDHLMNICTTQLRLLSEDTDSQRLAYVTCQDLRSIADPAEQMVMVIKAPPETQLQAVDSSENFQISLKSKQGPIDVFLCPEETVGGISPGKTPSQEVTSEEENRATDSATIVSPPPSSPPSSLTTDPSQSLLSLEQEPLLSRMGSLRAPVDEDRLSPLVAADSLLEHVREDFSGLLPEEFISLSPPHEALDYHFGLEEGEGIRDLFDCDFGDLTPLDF

Compound | inhibition
CCOc1ccc([C@@H](Nc2ccccn2)c2ccc3ccc(C)nc3c2O)cc1C | Active
CCOc1ccc([C@H](Nc2ccccn2)c2ccc3ccc(C)nc3c2O)cc1C | inactive
CCOc1ccc(C(Nc2ccccn2)c2ccc3ccc(C)nc3c2O)cc1C (racemic) | Active
